{"source": "ChEMBL document CHEMBL1158404", "about": "“Antifungal activity of alkyl and heterocyclic aza-derivatives of gossypol as well as their complexes with NaClO4 against Fusarium oxysporum f. sp. lupini” (2009)", "assay_type_in_all_cases": "functional", "key": {"Fusarium oxysporum [1]": {"test_system": "Fusarium oxysporum", "assay": "Antifungal activity against Fusarium oxysporum f. sp. lupini at 20 ug/ml after 192 hrs"}, "Fusarium oxysporum [2]": {"test_system": "Fusarium oxysporum", "assay": "Antifungal activity against Fusarium oxysporum f. sp. lupini at 0.1 ug/ml after 192 hrs"}, "Fusarium oxysporum [3]": {"test_system": "Fusarium oxysporum", "assay": "Antifungal activity against Fusarium oxysporum f. sp. lupini at 1 ug/ml after 192 hrs relative to control", "conditions": "read-out: GI"}, "Fusarium oxysporum [4]": {"test_system": "Fusarium oxysporum", "assay": "Antifungal activity against Fusarium oxysporum f. sp. lupini at 1 ug/ml after 96 hrs"}, "Fusarium oxysporum [5]": {"test_system": "Fusarium oxysporum", "assay": "Antifungal activity against Fusarium oxysporum f. sp. lupini at 1 ug/ml after 144 hrs"}, "Fusarium oxysporum [6]": {"test_system": "Fusarium oxysporum", "assay": "Antifungal activity against Fusarium oxysporum f. sp. lupini at 20 ug/ml after 96 hrs"}, "Fusarium oxysporum [7]": {"test_system": "Fusarium oxysporum", "assay": "Antifungal activity against Fusarium oxysporum f. sp. lupini at 0.5 ug/ml after 192 hrs"}, "Fusarium oxysporum [8]": {"test_system": "Fusarium oxysporum", "assay": "Antifungal activity against Fusarium oxysporum f. sp. lupini at 0.5 ug/ml after 96 hrs"}, "Fusarium oxysporum [9]": {"test_system": "Fusarium oxysporum", "assay": "Antifungal activity against Fusarium oxysporum f. sp. lupini at 20 ug/ml after 48 hrs"}, "Fusarium oxysporum [10]": {"test_system": "Fusarium oxysporum", "assay": "Antifungal activity against Fusarium oxysporum f. sp. lupini at 0.1 ug/ml after 192 hrs relative to control", "conditions": "read-out: GI"}, "Fusarium oxysporum [11]": {"test_system": "Fusarium oxysporum", "assay": "Antifungal activity against Fusarium oxysporum f. sp. lupini at 1 ug/ml after 192 hrs"}, "Fusarium oxysporum [12]": {"test_system": "Fusarium oxysporum", "assay": "Antifungal activity against Fusarium oxysporum f. sp. lupini at 0.5 ug/ml after 192 hrs relative to control", "conditions": "read-out: GI"}, "Fusarium oxysporum [13]": {"test_system": "Fusarium oxysporum", "assay": "Antifungal activity against Fusarium oxysporum f. sp. lupini at 1 ug/ml after 48 hrs"}, "Fusarium oxysporum [14]": {"test_system": "Fusarium oxysporum", "assay": "Antifungal activity against Fusarium oxysporum f. sp. lupini at 0.1 ug/ml after 48 hrs"}, "Fusarium oxysporum [15]": {"test_system": "Fusarium oxysporum", "assay": "Antifungal activity against Fusarium oxysporum f. sp. lupini at 0.5 ug/ml after 48 hrs"}, "Fusarium oxysporum [16]": {"test_system": "Fusarium oxysporum", "assay": "Antifungal activity against Fusarium oxysporum f. sp. lupini at 20 ug/ml after 144 hrs"}, "Fusarium oxysporum [17]": {"test_system": "Fusarium oxysporum", "assay": "Antifungal activity against Fusarium oxysporum f. sp. lupini at 0.5 ug/ml after 144 hrs"}, "Fusarium oxysporum [18]": {"test_system": "Fusarium oxysporum", "assay": "Antifungal activity against Fusarium oxysporum f. sp. lupini at 0.1 ug/ml after 144 hrs"}, "Fusarium oxysporum [19]": {"test_system": "Fusarium oxysporum", "assay": "Antifungal activity against Fusarium oxysporum f. sp. lupini at 20 ug/ml after 192 hrs relative to control", "conditions": "read-out: GI"}, "Fusarium oxysporum [20]": {"test_system": "Fusarium oxysporum", "assay": "Antifungal activity against Fusarium oxysporum f. sp. lupini at 0.1 ug/ml after 96 hrs"}}}
{"smiles": "C=CCN/C=C1\\C(=O)C(O)=C(C(C)C)c2cc(C)c(-c3c(C)cc4c(c3O)/C(=C/NCC=C)C(=O)C(O)=C4C(C)C)c(O)c21", "values": [{"measurement": "Radial growth inhibition of fungi (Ā) (mm)", "setting": "Fusarium oxysporum [1]", "result": 45.88, "unit": "mm"}, {"measurement": "Radial growth inhibition of fungi (Ā) (mm)", "setting": "Fusarium oxysporum [2]", "result": 53.75, "unit": "mm"}, {"measurement": "inhibition of growth at 1 µg/mL", "setting": "Fusarium oxysporum [3]", "result": 20.7, "unit": "%"}, {"measurement": "Radial growth inhibition of fungi (Ā) (mm)", "setting": "Fusarium oxysporum [4]", "result": 26, "unit": "mm"}, {"measurement": "Radial growth inhibition of fungi (Ā) (mm)", "setting": "Fusarium oxysporum [5]", "result": 36.63, "unit": "mm"}, {"measurement": "Radial growth inhibition of fungi (Ā) (mm)", "setting": "Fusarium oxysporum [6]", "result": 24.75, "unit": "mm"}, {"measurement": "Radial growth inhibition of fungi (Ā) (mm)", "setting": "Fusarium oxysporum [7]", "result": 50, "unit": "mm"}, {"measurement": "Radial growth inhibition of fungi (Ā) (mm)", "setting": "Fusarium oxysporum [8]", "result": 27.25, "unit": "mm"}, {"measurement": "Radial growth inhibition of fungi (Ā) (mm)", "setting": "Fusarium oxysporum [9]", "result": 14.63, "unit": "mm"}, {"measurement": "inhibition of growth at 0.1 µg/mL", "setting": "Fusarium oxysporum [10]", "result": 9.3, "unit": "%"}, {"measurement": "Radial growth inhibition of fungi (Ā) (mm)", "setting": "Fusarium oxysporum [11]", "result": 47, "unit": "mm"}, {"measurement": "inhibition of growth at 0.5 µg/mL", "setting": "Fusarium oxysporum [12]", "result": 15.6, "unit": "%"}, {"measurement": "Radial growth inhibition of fungi (Ā) (mm)", "setting": "Fusarium oxysporum [13]", "result": 17.13, "unit": "mm"}, {"measurement": "Radial growth inhibition of fungi (Ā) (mm)", "setting": "Fusarium oxysporum [14]", "result": 19.25, "unit": "mm"}, {"measurement": "Radial growth inhibition of fungi (Ā) (mm)", "setting": "Fusarium oxysporum [15]", "result": 18.13, "unit": "mm"}, {"measurement": "Radial growth inhibition of fungi (Ā) (mm)", "setting": "Fusarium oxysporum [16]", "result": 34.63, "unit": "mm"}, {"measurement": "Radial growth inhibition of fungi (Ā) (mm)", "setting": "Fusarium oxysporum [17]", "result": 38.88, "unit": "mm"}, {"measurement": "Radial growth inhibition of fungi (Ā) (mm)", "setting": "Fusarium oxysporum [18]", "result": 41.63, "unit": "mm"}, {"measurement": "inhibition of growth at 20 µg/mL", "setting": "Fusarium oxysporum [19]", "result": 22.6, "unit": "%"}, {"measurement": "Radial growth inhibition of fungi (Ā) (mm)", "setting": "Fusarium oxysporum [20]", "result": 29.88, "unit": "mm"}]}
{"smiles": "Cc1cc2c(c(O)c1-c1c(C)cc3c(c1O)/C(=C/NCCOCCO)C(=O)C(O)=C3C(C)C)/C(=C/NCCOCCO)C(=O)C(O)=C2C(C)C", "values": [{"measurement": "Radial growth inhibition of fungi (Ā) (mm)", "setting": "Fusarium oxysporum [1]", "result": 45.25, "unit": "mm"}, {"measurement": "Radial growth inhibition of fungi (Ā) (mm)", "setting": "Fusarium oxysporum [2]", "result": 52.63, "unit": "mm"}, {"measurement": "inhibition of growth at 1 µg/mL", "setting": "Fusarium oxysporum [3]", "result": 21.9, "unit": "%"}, {"measurement": "Radial growth inhibition of fungi (Ā) (mm)", "setting": "Fusarium oxysporum [4]", "result": 25.75, "unit": "mm"}, {"measurement": "Radial growth inhibition of fungi (Ā) (mm)", "setting": "Fusarium oxysporum [5]", "result": 35.88, "unit": "mm"}, {"measurement": "Radial growth inhibition of fungi (Ā) (mm)", "setting": "Fusarium oxysporum [6]", "result": 24.5, "unit": "mm"}, {"measurement": "Radial growth inhibition of fungi (Ā) (mm)", "setting": "Fusarium oxysporum [7]", "result": 49.5, "unit": "mm"}, {"measurement": "Radial growth inhibition of fungi (Ā) (mm)", "setting": "Fusarium oxysporum [8]", "result": 26.5, "unit": "mm"}, {"measurement": "Radial growth inhibition of fungi (Ā) (mm)", "setting": "Fusarium oxysporum [9]", "result": 14.38, "unit": "mm"}, {"measurement": "inhibition of growth at 0.1 µg/mL", "setting": "Fusarium oxysporum [10]", "result": 11.2, "unit": "%"}, {"measurement": "Radial growth inhibition of fungi (Ā) (mm)", "setting": "Fusarium oxysporum [11]", "result": 46.25, "unit": "mm"}, {"measurement": "inhibition of growth at 0.5 µg/mL", "setting": "Fusarium oxysporum [12]", "result": 16.5, "unit": "%"}, {"measurement": "Radial growth inhibition of fungi (Ā) (mm)", "setting": "Fusarium oxysporum [13]", "result": 16, "unit": "mm"}, {"measurement": "Radial growth inhibition of fungi (Ā) (mm)", "setting": "Fusarium oxysporum [14]", "result": 18.13, "unit": "mm"}, {"measurement": "Radial growth inhibition of fungi (Ā) (mm)", "setting": "Fusarium oxysporum [15]", "result": 17.63, "unit": "mm"}, {"measurement": "Radial growth inhibition of fungi (Ā) (mm)", "setting": "Fusarium oxysporum [16]", "result": 34.5, "unit": "mm"}, {"measurement": "Radial growth inhibition of fungi (Ā) (mm)", "setting": "Fusarium oxysporum [17]", "result": 38, "unit": "mm"}, {"measurement": "Radial growth inhibition of fungi (Ā) (mm)", "setting": "Fusarium oxysporum [18]", "result": 40.38, "unit": "mm"}, {"measurement": "inhibition of growth at 20 µg/mL", "setting": "Fusarium oxysporum [19]", "result": 23.6, "unit": "%"}, {"measurement": "Radial growth inhibition of fungi (Ā) (mm)", "setting": "Fusarium oxysporum [20]", "result": 28.5, "unit": "mm"}]}
{"smiles": "Cc1cc2c(C(C)C)c(O)c(O)c(C=O)c2c(O)c1-c1c(C)cc2c(C(C)C)c(O)c(O)c(C=O)c2c1O", "note": "[GOSSYPOL]", "values": [{"measurement": "Radial growth inhibition of fungi (Ā) (mm)", "setting": "Fusarium oxysporum [1]", "result": 46, "unit": "mm"}, {"measurement": "Radial growth inhibition of fungi (Ā) (mm)", "setting": "Fusarium oxysporum [2]", "result": 55, "unit": "mm"}, {"measurement": "inhibition of growth at 1 µg/mL", "setting": "Fusarium oxysporum [3]", "result": 20.3, "unit": "%"}, {"measurement": "Radial growth inhibition of fungi (Ā) (mm)", "setting": "Fusarium oxysporum [4]", "result": 26.25, "unit": "mm"}, {"measurement": "Radial growth inhibition of fungi (Ā) (mm)", "setting": "Fusarium oxysporum [5]", "result": 36.75, "unit": "mm"}, {"measurement": "Radial growth inhibition of fungi (Ā) (mm)", "setting": "Fusarium oxysporum [6]", "result": 25.25, "unit": "mm"}, {"measurement": "Radial growth inhibition of fungi (Ā) (mm)", "setting": "Fusarium oxysporum [7]", "result": 50.5, "unit": "mm"}, {"measurement": "Radial growth inhibition of fungi (Ā) (mm)", "setting": "Fusarium oxysporum [8]", "result": 27.88, "unit": "mm"}, {"measurement": "Radial growth inhibition of fungi (Ā) (mm)", "setting": "Fusarium oxysporum [9]", "result": 14.88, "unit": "mm"}, {"measurement": "inhibition of growth at 0.1 µg/mL", "setting": "Fusarium oxysporum [10]", "result": 7.2, "unit": "%"}, {"measurement": "Radial growth inhibition of fungi (Ā) (mm)", "setting": "Fusarium oxysporum [11]", "result": 47.25, "unit": "mm"}, {"measurement": "inhibition of growth at 0.5 µg/mL", "setting": "Fusarium oxysporum [12]", "result": 14.8, "unit": "%"}, {"measurement": "Radial growth inhibition of fungi (Ā) (mm)", "setting": "Fusarium oxysporum [13]", "result": 17.25, "unit": "mm"}, {"measurement": "Radial growth inhibition of fungi (Ā) (mm)", "setting": "Fusarium oxysporum [14]", "result": 19.63, "unit": "mm"}, {"measurement": "Radial growth inhibition of fungi (Ā) (mm)", "setting": "Fusarium oxysporum [15]", "result": 18.63, "unit": "mm"}, {"measurement": "Radial growth inhibition of fungi (Ā) (mm)", "setting": "Fusarium oxysporum [16]", "result": 35, "unit": "mm"}, {"measurement": "Radial growth inhibition of fungi (Ā) (mm)", "setting": "Fusarium oxysporum [17]", "result": 39.5, "unit": "mm"}, {"measurement": "Radial growth inhibition of fungi (Ā) (mm)", "setting": "Fusarium oxysporum [18]", "result": 42.75, "unit": "mm"}, {"measurement": "inhibition of growth at 20 µg/mL", "setting": "Fusarium oxysporum [19]", "result": 22.4, "unit": "%"}, {"measurement": "Radial growth inhibition of fungi (Ā) (mm)", "setting": "Fusarium oxysporum [20]", "result": 30.63, "unit": "mm"}]}
